Assay [1] concerns Proteus mirabilis. The assay is described as follows: Antibacterial power measurement of first compound (bacterial inhibition rate, broth, absorbance 600 nm). It is filed as cell-based. As to conditions: 0.01 g first compound in 25 ml broth, 3,000 CFU/ml, 35° C. for 16 hours.
Assay [2] concerns E. coli. The assay is described as above. It is filed as cell-based. The settings on record: Escherichia coli, 0.01 g first compound in 25 ml broth, 3,000 CFU/ml, 35° C. for 16 hours.

The values below come from patent US20230381077A1, “Antibacterial And Deodorizing Composition, And Preparation Method Therefor” (LG Chem, Ltd., priority 2021, published 2023).

The inhibition of growth is the drop in the measured response relative to a control, in per cent.

SMILES strings stand for the structures.

Take `CCCCCCCCCC[N+](C)(CCO)CCO` [Antibacterial Deodorant Monomer A]: the values for the inhibition of growth at 400 µg/mL in assay [1] and in assay [2] were 99.9% and 98.9%, respectively.
The like results for `CCCCCCCC[N+](C)(CCO)CCO` [Antibacterial Deodorant Monomer B] were, in that order, 91.2% and 89.3%.
The like results for `CCCCCCCCCC[N+](C)(C)CCO` [Antibacterial Deodorant Monomer D] were, in that order, 91.7% and 94.4%.
For the compound `CCCCCCCCCCCC[N+](C)(C)CCO` [Antibacterial Deodorant Monomer E], the inhibition of growth at 400 µg/mL was 96.9% in assay [1] and 96.1% in assay [2].
On to `CCCCCCCCCC[N+](C)(C)CCO` [Antibacterial Deodorant Monomer F], for which the inhibition of growth at 400 µg/mL is 83.1% in assay [1] (16 h) and 96.4% in assay [2] (16 h).
For the compound `CCCC[N+](C)(CCO)CCO` [Antibacterial Deodorant Monomer G], the inhibition of growth at 400 µg/mL in assay [1] turned out to be 18.3%; in assay [2], 15.2%.
The like results for `CCCCCCCCCCCC[N+](C)(C)CCCCCCCCCCCC` [Didodecyldimethylammonium chloride, reference compound] were, in that order, 88.5% and 90.1%.
`N=C(N)N` [Guanidine, reference compound]: the results for the inhibition of growth at 400 µg/mL in assay [1] and in assay [2] were 97.2% and 96.5%, respectively.
`CCCCCCCCCCCCCCCC[N+](C)(C)C` [Hexadecyltrimethylammonium chloride, reference compound]: the inhibition of growth at 400 µg/mL in assay [1] (16 h) amounted to 93.5%; in assay [2] (16 h) it was 92.1%.
Regarding `CCCCCCCCCC[N+](C)(C)CCCCCCCCO` [reference compound], the figures for the inhibition of growth at 400 µg/mL in assay [1] and in assay [2] were 85.1% and 82.1%, respectively.
For `CCCCCCCCCCCC[N+](CCO)(CCCCCCCCCC)CCCCCCCCCCCC` [reference compound], in that order: 81.3% and 79.8%.
